Like-named read-outs stand apart in the source and are kept apart here.
How the values were obtained:
[1] = tested on: A. baumannii
[2] = tested on: P. aeruginosa strains with elevated MICs to Polymyxin B; test: MIC against strains with elevated MICs to Polymyxin B; assay type: cell-based, Pseudomonas aeruginosa; details: Table 6D; for MIC P. aeruginosa 065: strain 065, elevated MIC to Polymyxin B; for MIC P. aeruginosa 066: strain 066, elevated MIC to Polymyxin B; for MIC P. aeruginosa 067: strain 067, elevated MIC to Polymyxin B
Summary of the method: (§1)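 Reported MIC is the lower of duplicates agreeing within 2-fold, or the mode where compounds were tested repeatedly. Assays with greater than 2-fold duplicate variation were rejected. Colonies grown 18-24 hours on Mueller-Hinton agar were suspended to 0.5 McFarland as inoculum.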

[3] = tested on: K. pneumoniae strains with elevated MICs to Polymyxin B; test: as above; assay type: cell-based, Klebsiella pneumoniae; details: Table 6D; for MIC K. pneumoniae 063: strain 063, elevated MIC to Polymyxin B; for MIC K. pneumoniae 064: strain 064, elevated MIC to Polymyxin B; for MIC K. pneumoniae 655: strain 655, elevated MIC to Polymyxin B; for MIC K. pneumoniae 062: strain 062, elevated MIC to Polymyxin B
Summary of the method: as §1

[4] = tested on: K. pneumoniae
[5] = tested on: E. coli
[6] = tested on: P. aeruginosa
[7] = tested on: A. baumanii strains with elevated MICs to Polymyxin B; test: MIC against strains with elevated MICs to Polymyxin B; assay type: cell-based, Acinetobacter baumannii; details: Table 6D; for MIC A. baumannii 053: strain 053, elevated MIC to Polymyxin B; for MIC A. baumannii 056: strain 056, elevated MIC to Polymyxin B; for MIC A. baumannii 068: strain 068, elevated MIC to Polymyxin B; for MIC A. baumannii 070: strain 070, elevated MIC to Polymyxin B
Summary of the method: as §1

[8] = tested on: E. coli strains with elevated MICs to Polymyxin B; test: as above; assay type: cell-based, Escherichia coli; details: Table 6D; for MIC E. coli 058: strain 058, elevated MIC to Polymyxin B; for MIC E. coli 059: strain 059, elevated MIC to Polymyxin B; for MIC E. coli 060: strain 060, elevated MIC to Polymyxin B; for MIC E. coli 061: strain 061, elevated MIC to Polymyxin B
Summary of the method: as §1

[9] = absence of a second agent, Table 6B

## (S)-1-isobutyl piperazine-2- carbonyl-L-Thr- L-Dap-polymyxin B heptapeptide [Example D69]
[1]; sole activity, Table 6C
  MIC, A. baumannii ATCC BAA-747: 0.25 micrograms/mL
  MIC, A. baumannii NCTC 13424: 0.5 micrograms/mL
[2]
  MIC P. aeruginosa 065: 16 micrograms/mL
  MIC P. aeruginosa 066: 32 micrograms/mL
  MIC P. aeruginosa 067: >256 micrograms/mL
[3]
  MIC K. pneumoniae 063: 128 micrograms/mL
  MIC K. pneumoniae 064: 32 micrograms/mL
[4]; sole activity, Table 6C
  MIC, K. pneumoniae ATCC 4352: 0.125 micrograms/mL
[5]; sole activity, Table 6C
  MIC, E. coli ATCC 25922: 0.25 micrograms/mL
  MIC, E. coli NCTC 13441: 0.125 micrograms/mL
[6]; sole activity, Table 6C
  MIC, P. aeruginosa ATCC 27853: 0.5 micrograms/mL
  MIC, P. aeruginosa CCUG 59347: 0.5 micrograms/mL
[7]
  MIC A. baumannii 053: >256 micrograms/mL
  MIC A. baumannii 056: 256 micrograms/mL
  MIC A. baumannii 068: 32 micrograms/mL
[8]
  MIC E. coli 058: 8 micrograms/mL
  MIC E. coli 059: 16 micrograms/mL
  MIC E. coli 060: 8 micrograms/mL
  MIC E. coli 061: 32 micrograms/mL

## trans-4- octylpyrrolidine-3- carbonyl polymyxin B nonapeptide [Example D30]
[1]; [9]
  MIC, A. baumannii ATCC BAA-747: 1 micrograms/mL
  MIC, A. baumannii NCTC 13424: 2 micrograms/mL
[2]
  MIC P. aeruginosa 065: 0.5 micrograms/mL
  MIC P. aeruginosa 066: 0.5 micrograms/mL
  MIC P. aeruginosa 067: 16 micrograms/mL
[3]
  MIC K. pneumoniae 063: 4 micrograms/mL
  MIC K. pneumoniae 064: 1 micrograms/mL
  MIC K. pneumoniae 655: 2 micrograms/mL
[4]; [9]
  MIC, K. pneumoniae ATCC 4352: 1 micrograms/mL
[5]; [9]
  MIC, E. coli ATCC 25922: 2 micrograms/mL
  MIC, E. coli NCTC 13441: 2 micrograms/mL
[6]; [9]
  MIC, P. aeruginosa ATCC 27853: 1 micrograms/mL
  MIC, P. aeruginosa CCUG 59347: 1 micrograms/mL
[7]
  MIC A. baumannii 053: 16 micrograms/mL
  MIC A. baumannii 056: 8 micrograms/mL
  MIC A. baumannii 068: 2 micrograms/mL
  MIC A. baumannii 070: 1 micrograms/mL
[8]
  MIC E. coli 058: 1 micrograms/mL
  MIC E. coli 059: 1 micrograms/mL
  MIC E. coli 060: 1 micrograms/mL
  MIC E. coli 061: 4 micrograms/mL

## cis-5- (benzylcarbamoyl) piperidine-3- carbonyl L-Thr-L- Dap-polymyxin B heptapeptide [Example D75]
[1]; sole activity, Table 6C
  MIC, A. baumannii ATCC BAA-747: 0.06 micrograms/mL
  MIC, A. baumannii NCTC 13424: 0.125 micrograms/mL
[2]
  MIC P. aeruginosa 065: 4 micrograms/mL
  MIC P. aeruginosa 066: 8 micrograms/mL
[3]
  MIC K. pneumoniae 062: 128 micrograms/mL
  MIC K. pneumoniae 063: 64 micrograms/mL
  MIC K. pneumoniae 064: 8 micrograms/mL
  MIC K. pneumoniae 655: 64 micrograms/mL
[4]; sole activity, Table 6C
  MIC, K. pneumoniae ATCC 4352: 0.06 micrograms/mL
  MIC, K. pneumoniae ATCC BAA-2146: 0.125 micrograms/mL
[5]; sole activity, Table 6C
  MIC, E. coli ATCC 25922: 0.06 micrograms/mL
  MIC, E. coli NCTC 13441: 0.125 micrograms/mL
[6]; sole activity, Table 6C
  MIC, P. aeruginosa ATCC 27853: 0.5 micrograms/mL
  MIC, P. aeruginosa CCUG 59347: 0.5 micrograms/mL
[7]
  MIC A. baumannii 053: 64 micrograms/mL
  MIC A. baumannii 056: 8 micrograms/mL
  MIC A. baumannii 068: 16 micrograms/mL
  MIC A. baumannii 070: 32 micrograms/mL
[8]
  MIC E. coli 058: 4 micrograms/mL
  MIC E. coli 059: 8 micrograms/mL
  MIC E. coli 060: 4 micrograms/mL
  MIC E. coli 061: 8 micrograms/mL

## (trans-5-(isobutyl- piperidine)-3- carbonyl L-Ser- L-Dap-polymyxin B heptapeptide [Example D79]
[1]; sole activity, Table 6C
  MIC, A. baumannii ATCC BAA-747: 0.06 micrograms/mL
  MIC, A. baumannii NCTC 13424: 0.125 micrograms/mL
[2]
  MIC P. aeruginosa 065: 16 micrograms/mL
  MIC P. aeruginosa 066: 8 micrograms/mL
  MIC P. aeruginosa 067: >128 micrograms/mL
[3]
  MIC K. pneumoniae 062: 64 micrograms/mL
  MIC K. pneumoniae 063: >128 micrograms/mL
  MIC K. pneumoniae 064: 8 micrograms/mL
  MIC K. pneumoniae 655: 128 micrograms/mL
[4]; sole activity, Table 6C
  MIC, K. pneumoniae ATCC 4352: 0.06 micrograms/mL
  MIC, K. pneumoniae ATCC BAA-2146: 0.125 micrograms/mL
[5]; sole activity, Table 6C
  MIC, E. coli ATCC 25922: 0.125 micrograms/mL
  MIC, E. coli NCTC 13441: 0.125 micrograms/mL
[6]; sole activity, Table 6C
  MIC, P. aeruginosa ATCC 27853: 0.25 micrograms/mL
  MIC, P. aeruginosa CCUG 59347: 0.25 micrograms/mL
[7]
  MIC A. baumannii 053: 128 micrograms/mL
  MIC A. baumannii 056: 32 micrograms/mL
  MIC A. baumannii 068: 8 micrograms/mL
  MIC A. baumannii 070: 16 micrograms/mL
[8]
  MIC E. coli 058: 8 micrograms/mL
  MIC E. coli 059: 8 micrograms/mL
  MIC E. coli 060: 4 micrograms/mL
  MIC E. coli 061: 8 micrograms/mL

## (trans-5-(isobutyl- piperidine)-3- carbonyl L-Thr- D-Dap-polymyxin B heptapeptide [Example D87]
[1]; sole activity, Table 6C
  MIC, A. baumannii ATCC BAA-747: 0.03 micrograms/mL
  MIC, A. baumannii NCTC 13424: 0.03 micrograms/mL
[2]
  MIC P. aeruginosa 065: 0.5 micrograms/mL
  MIC P. aeruginosa 066: 0.25 micrograms/mL
  MIC P. aeruginosa 067: 64 micrograms/mL
[3]
  MIC K. pneumoniae 062: 8 micrograms/mL
  MIC K. pneumoniae 063: 8 micrograms/mL
  MIC K. pneumoniae 064: 0.5 micrograms/mL
  MIC K. pneumoniae 655: 4 micrograms/mL
[4]; sole activity, Table 6C
  MIC, K. pneumoniae ATCC 4352: 0.06 micrograms/mL
[5]; sole activity, Table 6C
  MIC, E. coli ATCC 25922: 0.03 micrograms/mL
[6]; sole activity, Table 6C
  MIC, P. aeruginosa ATCC 27853: 0.25 micrograms/mL
  MIC, P. aeruginosa CCUG 59347: 1 micrograms/mL
[7]
  MIC A. baumannii 053: 32 micrograms/mL
  MIC A. baumannii 056: 2 micrograms/mL
  MIC A. baumannii 068: 2 micrograms/mL
  MIC A. baumannii 070: 2 micrograms/mL
[8]
  MIC E. coli 058: 1 micrograms/mL
  MIC E. coli 059: 1 micrograms/mL
  MIC E. coli 060: 1 micrograms/mL
  MIC E. coli 061: 4 micrograms/mL

## cis-5- (isobutylcarbamoyl) piperidine-3- carbonyl L-Thr-L- Dap-polymyxin B heptapeptide [Example D81]
[1]; sole activity, Table 6C
  MIC, A. baumannii ATCC BAA-747: 0.03 micrograms/mL
  MIC, A. baumannii NCTC 13424: 0.06 micrograms/mL
[2]
  MIC P. aeruginosa 065: 2 micrograms/mL
  MIC P. aeruginosa 066: 16 micrograms/mL
  MIC P. aeruginosa 067: >128 micrograms/mL
[3]
  MIC K. pneumoniae 063: 64 micrograms/mL
  MIC K. pneumoniae 064: 16 micrograms/mL
  MIC K. pneumoniae 655: 64 micrograms/mL
[4]; sole activity, Table 6C
  MIC, K. pneumoniae ATCC 4352: 0.06 micrograms/mL
  MIC, K. pneumoniae ATCC BAA-2146: 0.06 micrograms/mL
[5]; sole activity, Table 6C
  MIC, E. coli ATCC 25922: 0.06 micrograms/mL
[6]; sole activity, Table 6C
  MIC, P. aeruginosa ATCC 27853: 0.25 micrograms/mL
  MIC, P. aeruginosa CCUG 59347: 0.5 micrograms/mL
[7]
  MIC A. baumannii 053: 128 micrograms/mL
  MIC A. baumannii 056: 32 micrograms/mL
  MIC A. baumannii 068: 32 micrograms/mL
  MIC A. baumannii 070: 32 micrograms/mL
[8]
  MIC E. coli 058: 8 micrograms/mL
  MIC E. coli 059: 16 micrograms/mL
  MIC E. coli 060: 8 micrograms/mL
  MIC E. coli 061: 32 micrograms/mL

## 3-aminomethyl- undecanoyl polymyxin B nonapeptide [Example D33]
[1]; [9]
  MIC, A. baumannii ATCC BAA-747: 1 micrograms/mL
  MIC, A. baumannii NCTC 13424: 2 micrograms/mL
[2]
  MIC P. aeruginosa 066: 4 micrograms/mL
  MIC P. aeruginosa 067: 32 micrograms/mL
[3]
  MIC K. pneumoniae 062: 2 micrograms/mL
  MIC K. pneumoniae 063: 16 micrograms/mL
  MIC K. pneumoniae 064: 2 micrograms/mL
  MIC K. pneumoniae 655: 32 micrograms/mL
[4]; [9]
  MIC, K. pneumoniae ATCC 4352: 2 micrograms/mL
[5]; [9]
  MIC, E. coli ATCC 25922: 1 micrograms/mL
  MIC, E. coli NCTC 13441: 2 micrograms/mL
[6]; [9]
  MIC, P. aeruginosa ATCC 27853: 0.5 micrograms/mL
  MIC, P. aeruginosa CCUG 59347: 1 micrograms/mL
[7]
  MIC A. baumannii 053: 32 micrograms/mL
  MIC A. baumannii 056: 16 micrograms/mL
  MIC A. baumannii 068: 4 micrograms/mL
  MIC A. baumannii 070: 4 micrograms/mL
[8]
  MIC E. coli 059: 2 micrograms/mL
  MIC E. coli 060: 2 micrograms/mL
  MIC E. coli 061: 8 micrograms/mL

Source: patent publication US20210221848A1, “POLYMYXIN DERIVATIVES AND THEIR USE IN COMBINATION THERAPY TOGETHER WITH DIFFERENT ANTIBIOTICS” (priority 2014, published 2021)
